Assay results: patent publication US9994604B2, “Pyrazolotriazolyl nucleoside analogues and oligonucleotides comprising them” (Bio-Lab Ltd., priority 2012, dated 2018)
[APT] = modified deoxyadenosine dA^PT as named in the publication

Legend:
HBV = details: cited from earlier work
HIV = details: cited from earlier work
human platelet = details: cited from earlier work
[1] = test system: 24-mer single-stranded target DNA sequence of SEQ ID NO: 4 (X=T); assay: thermal denaturation (melting) studies of DNA duplexes followed by absorption spectroscopy; type: binding; details: duplex with SEQ ID NO: 4 (X=T); 1 μM each strand, 10 mM sodium phosphate pH 7, 150 mM NaCl, 1 mM EDTA; 260 nm
Protocol: Oligonucleotide concentrations were 1 μM (each strand) in a 10 mM sodium phosphate, pH 7, buffer containing 150 mM NaCl and 1 mM EDTA. Temperature was increased from 10° C. to 80° C. over 140 min. Melting curves were recorded at X, =260 nm.
The influence of dA replacement (one or two) by the pyrazolo[1,5-a]-1,3,5-triazine derivative (dA^PT) on duplex stability was investigated by thermal denaturation studies, followed by absorption spectroscopy, using DNA duplexes obtained by mixing the modified oligonucleotides of SEQ ID NOs. 1 and 2 with the 24-mer single-stranded target DNA sequence of SEQ ID NO: 4 (X=T). The natural deoxyadenosine was also incorporated in the same positions (SEQ ID NO: 5) for comparison (duplex obtained by hybridization of the oligonucleotides of SEQ ID NOs: 4+5).

[2] = acidic hydrolysis (stability of the glycosidic bond); type: physicochemical; details: 80% acetic acid at 65° C. for 45 hr followed by concentrated ammonium hydroxide
Description: In order to study the stability of the glycosidic bond of the dA^PT described above in acidic conditions, compared with that of dA, two oligonucleotides containing a single incorporation of either dA^PT (SEQ ID NO: 3) or the natural dA (SEQ ID NO: 6) were synthesized.

[3] = test system: oligonucleotide of SEQ ID NO: 4 (X=T); assay: CD spectra of DNA duplexes; type: physicochemical; details: 4 μM each strand, 10 mM sodium phosphate pH 7, 150 mM NaCl, 1 mM EDTA, 10° C., 220-300 nm; compared with unmodified duplex 4+5
Description: CD spectra of the DNA duplexes obtained from the hybridization of the oligonucleotides of SEQ ID NOs: 4+1 and 4+2, containing one or two dA^PT, respectively, were compared to that of the parent unmodified duplex obtained by hybridization of the oligonucleotides of SEQ ID NOs: 4+5.

mouse leukemia cells = details: cited from earlier work

Compound: Nc1ncnc2c([C@H]3O[C@@H](CO)[C@H](O)[C@@H]3O)cnn12 [4-amino-8-(β-L-ribofuranosyl)pyrazolo[1,5-a]-1,3,5-triazine]
- anti-HBV activity (HBV): no significant
- anti-HIV activity (HIV): no significant

Compound: CNc1nc(C)nc2c([C@H]3C[C@H](OP(=O)(O)O)[C@@H](COP(=O)(O)O)O3)cnn12 [compound 2, 8-(2′-deoxy-β-D-ribofuranosyl)-2-methyl-4-(N-methylamino)pyrazolo[1,5-a]-1,3,5-triazine-3′,5′-bisphosphate]
- inhibition of ADP-induced human platelet aggregation (human platelet): strongly inhibits
- inhibition of ADP-induced human platelet shape change (human platelet): strongly inhibits

Compound: SEQ ID NO: 5: unmodified 5′d-(TAC CGC GTG CAA CCC TCT)3′ with natural deoxyadenosine (DNA TACCGCGTGCAACCCTCT; DNA, backbone not given here)
- melting temperature [Tm] [1]: 69 °C

Compound: SEQ ID NO: 6: unmodified 5′d-(TTC CTC TTT CTA CCC TCT)3′ with natural dA (DNA TTCCTCTTTCTACCCTCT; DNA, backbone not given here)
- stability in acidic conditions (degradation) [2]: fully fragmented

Compound: SEQ ID NO: 2: 18-mer 5′d-(TA^PTC CGC GTG CAA^PT CCC TCT)3′ with two dA^PT incorporations (DNA TNCCGCGTGCANCCCTCT; listed as DNA, chemistry not fully specified)
- melting temperature [Tm] [1]: 69.3 °C
- duplex form from CD spectra [3]: still forms a B-form duplex

Compound: SEQ ID NO: 1: 18-mer 5′d-(TAC CGC GTG CAA^PT CCC TCT)3′ with one dA^PT incorporation (DNA TACCGCGTGCATCCCTCT; DNA, [APT] at 12, backbone not given here)
- melting temperature [Tm] [1]: 69.6 °C
- duplex form from CD spectra [3]: still forms a B-form duplex

Compound: SEQ ID NO: 3: 5′d-(TTC CTC TTT CTA^PT CCC TCT)3′, a sole dA^PT and no other purine (DNA TTCCTCTTTCTNCCCTCT; listed as DNA, chemistry not fully specified)
- stability in acidic conditions (degradation) [2]: not degraded

Compound: Nc1ncnc2c([C@@H]3O[C@H](CO)[C@@H](O)[C@H]3O)cnn12 [compound 10, 4-amino-8-(β-D-ribofuranosyl)pyrazolo[1,5-a]-1,3,5-triazine]
- activity compared with formycin (mouse leukemia cells; all systems tested): more active than formycin
- inhibitory activity against various mouse leukemia cells (mouse leukemia cells): moderate inhibitory activity
